Experimental data published in patent US20240277798A1, “CYCLOSPORINE COMPOSITIONS AND METHODS OF USE” (Bacainn Biotherapeutics, Ltd., priority 2021, published 2024).

Test system: human neutrophils
Test: PMN transmigration assay (Salmonella typhimurium-infected T84 monolayer, HXA3/MRP2-driven neutrophil migration, MPO readout)
Format: cell-based
Settings: dose of 100 nM, result in words
Experimental: PMN transmigration assay. T84 colorectal cancer cells were grown to confluence on the bottom side of 12 well polycarbonate membrane inserts of a 24 well Transwell® plate. The confluent growth of these epithelial cells results in physiologically-relevant apical (luminal) and basolateral surfaces in the transwells. […] The monolayer was then infected on the apical surface with Salmonella typhimurium for 2 hours to induce hepoxilin A3 (HXA3) efflux through the MRP2 membrane protein and into the apical chamber. […] Freshly isolated and prepared human neutrophils were then added to the basolateral side and allowed to transmigrate through the monolayer for 2 hours. The number of neutrophils migrated to the apical chamber (due to the HXA3 gradient) was then assayed by determination of myeloperoxidase activity (a neutrophil biomarker). Inhibition of transmigration is indicated by lower MPO activity in the apical chamber.

| Compound | inhibition of neutrophil migration |
| --- | --- |
| CC[C@@H]1NC(=O)[C@H]([C@H](O)[C@H](C)CCCCCCC(=O)O)N(C)C(=O)[C@H](C(C)C)N(C)C(=O)[C@H](CC(C)C)N(C)C(=O)[C@H](CC(C)C)N(C)C(=O)[C@@H](C)NC(=O)[C@H](C)NC(=O)[C@H](CC(C)C)N(C)C(=O)[C@H](C(C)C)NC(=O)[C@H](CC(C)C)N(C)C(=O)CN(C)C1=O [BT125] | exhibit inhibition |
| CC[C@@H]1NC(=O)[C@H]([C@H](O)[C@H](C)CCCCC(=O)O)N(C)C(=O)[C@H](C(C)C)N(C)C(=O)[C@H](CC(C)C)N(C)C(=O)[C@H](CC(C)C)N(C)C(=O)[C@@H](C)NC(=O)[C@H](C)NC(=O)[C@H](CC(C)C)N(C)C(=O)[C@H](C(C)C)NC(=O)[C@H](CC(C)C)N(C)C(=O)CN(C)C1=O [BT122] | exhibit inhibition |
